# Measured values reported in patent publication US7196105B2, “Treatment of human multiple myeloma by curcumin” (Research Development Foundation, priority 2002, dated 2007).
# Entries after “also recorded” stand apart in the source; their conditions may differ.
# How the values were obtained:
# Format in all cases: cell-based, human
# NF-κB [1] = test: Electrophoretic mobility shift assay (EMSA) for nuclear NF-κB in multiple myeloma cell lines; conditions: for time of complete downregulation of NF-κB: 50 μM curcumin
# Description: FIG. 1A: Dose response of NF-κB to curcumin treatment of U266 cells. […] FIG. 1B: Effect of exposure duration on curcumin-induced NF-κB suppression in U266 cells. […] FIG. 1C: Effect of exposure duration on curcumin-induced NF-κB suppression in MM.1 cells. Cells were treated as described in FIG. 1B. FIG. 1D: Effect of exposure duration on curcumin-induced NF-κB suppression in MM.1R cells. Cells were treated as described in FIG. 1B. FIG. 1E: Effect of exposure duration on curcumin-induced NF-κB suppression in RPMI 8226. Cells were treated as described in FIG. 1B. FIG. 1F: […] Nuclear extracts were prepared from U266 cells (2×10^6/ml), incubated for 30 min with different antibodies or unlabeled NF-κB oligonucleotide probe, and then assayed for NF-κB by EMSA. […] U266 cells (2×10^6 cells/ml) were treated with indicated concentrations of NEMO-control or NBD-peptide (100 μM) for the indicated times. Nuclear extracts were then checked for the presence of NF-κB DNA-binding activity by EMSA. […] Untreated or NBD-peptide-treated (100 μM; 12 h) U266 cells were cytospun, and p65 immunocytochemistry was performed as described. Red stain indicates the localization of p65 and blue stain indicates nucleus (magnification 200×). […] U266 cells (2×10^6 cells/ml) were treated with indicated concentrations of NEMO-control or NBD-peptide (100 μM) for the indicated time periods, and cell viability was monitored by the trypan blue dye exclusion method. Percent cell killing was determined as: (number of trypan blue stained cells/total cells)×100. Nuclear extracts were prepared according to Bharti et al. (2003). Briefly, 2×10^6 cells were washed with cold PBS and suspended in 0.4 ml of hypotonic lysis buffer containing protease inhibitors for 30 min. The cells were then lysed with 12.5 μl of 10% Nonidet P-40. […] The nuclear pellet was resuspended in 25-μl ice-cold nuclear extraction buffer. After 30 min of intermittent mixing, the extract was centrifuged, and supernatants containing nuclear extracts were collected. Protein content was measured by the Bradford method. […] NF-kB activation was analyzed by electrophoretic mobility gel shift assay (EMSA) as described previously (Chaturvedi et al., 1994). […] Radioactive bands from the dried gels were visualized and quantitated by Phosphorlmager (Molecular Dynamics, Sunnyvale, Calif.) using ImageQuant software.
# Bcl-2 = test: Western blot for NF-κB-regulated gene product Bcl-2 in U266 cells; conditions: curcumin 50 μM
# Description: Sixty micrograms of cytoplasmic extracts were resolved on 10% SDS-PAGE gel, electrotransferred on a nitrocellulose membrane, and probed for the following: IκBα (FIG. 4A); Bcl-2 (FIG. 4B); Bcl-xL (FIG. 4C) and cyclin D1 (FIG. 4D). The same blots were stripped and reprobed with anti-β-actin antibody to show equal protein loading (lower panel in each figure). FIG. 4E: […] U266, MM.1 or RPMI 8226 cells (1×10^7) were treated with curcumin ([…]) in 5 ml of medium for the indicated times. Supernatants were harvested and concentrated approximately 20×, and IL-6 was quantitated by an IL-6 ELISA kit. Values shown were normalized to 1 ml of un-concentrated supernatants. Thirty to fifty micrograms of cytoplasmic protein extracts prepared as described (Chaturvedi et al., 2000) were resolved on 10% SDS-PAGE gel. After electrophoresis, the proteins were electrotransferred to a nitrocellulose membrane, blocked with 5% nonfat milk, and probed with antibodies against either IkBa, phospho-IkBa, Bcl-2, Bcl-xL, or cyclin D1 (1:3000) for 1 h. Thereafter, the blot was washed, exposed to HRP-conjugated secondary antibodies for 1 h, and finally detected by chemiluminescence (ECL, Amersham Pharmacia Biotech., Arlington Heights, Ill.).
# [2] = tested on: multiple myeloma cell lines (U266, RPMI 8226, MM.1, MM.1R); test: Growth/proliferation of all multiple myeloma cell lines tested (statement for all lines); conditions: curcumin 10 μM
# From the text: The results are shown as the mean (±s. d.) cell count from triplicate cultures.
# caspase-7 = test: Western blot for procaspase-7 (apoptosis); conditions: U266, curcumin 50 μM, time course
# Description: The cells were washed and total proteins were extracted by lysing the cells. Sixty microgram of extracts were resolved on 10% SDS-PAGE gel, electrotransferred to a nitrocellulose membrane, and probed with anti-procaspase-9 (FIG. 6C), anti-procaspase-7 (FIG. 6D), anti-PARP (FIG. 6E, upper panel) and anti-cleaved PARP (FIG. 6E, lower penal). […] Lysates were then spun at 14000 rpm for 10 min to remove insoluble material, resolved on 7.5% gel and probed with PARP antibodies. PARP was cleaved from the 116-kDa intact protein into 85-kDa and 40-kDa peptide products. To detect cleavage products of procaspase 7 and procaspase 9, whole cell extracts were resolved on 10% gel and probed with appropriate antibodies.
# NF-κB [3] = test: Immunocytochemistry for NF-κB in bone marrow CD138+ cells from multiple myeloma patients; conditions: patients #5, #9 and #10, 50 μM curcumin, 2 h
# Description: (§1) The cells were fixed on slides by cytospin centrifugation and immuno-stained for NF-κB or STAT3. Red stain indicates specific staining for NF-κB or STAT3, whereas blue stain indicates the relative position of the nuclei in the corresponding view.
# (§2) Red stain indicates the specific staining for NF-κB or STAT3 as indicated, whereas blue stain indicates the relative position of the nuclei in the corresponding view.
# (§3) Untreated or treated multiple myeloma cells were plated on a poly-L-lysine-coated glass slide by centrifugation using a Cytospin 4 (Thermoshendon, Pittsburg, Pa.), air-dried for 1 h at room temperature, and fixed with cold acetone. After a brief washing in PBS, slides were blocked with 5% normal goat serum for 1 h and then incubated either with rabbit polyclonal anti-human NF-κB p65 antibody (SC-109; dilution, 1:100) or with anti-human STAT3 antibody (SC-482; dilution, 1:100). After overnight incubation, the slides were washed and then incubated with goat anti-rabbit IgG-Alexa 594 (A-11037; dilution, 1:100) for 1 h and counter-stained for nuclei with Hoechst (50 ng/ml) for 5 min. Stained slides were mounted with mounting medium (Sigma Colo.) and analyzed under an epifluorescence microscope (Labophot-2, Nikon, Tokyo, Japan). […]
# STAT3 = test: Immunocytochemistry for STAT3 in bone marrow CD138+ cells from multiple myeloma patients; conditions: patients #5, #9 and #10, 50 μM curcumin, 2 h (legend b30: 1 h)
# Description: as §1, §2, §3
smiles,measurement,setting,value
"COc1cc(/C=C/C(=O)CC(=O)/C=C/c2ccc(O)c(OC)c2)ccc1O [curcumin, diferuloylmethane]",time of complete downregulation of NF-κB,NF-κB [1]; MM.1 cells,4 h
same,time of complete downregulation of NF-κB,NF-κB [1]; MM.1R cells,4 h
same,time of complete downregulation of NF-κB,NF-κB [1]; U266 cells,4 h
same,concentration sufficient to fully suppress constitutive NF-κB activation,"NF-κB [1]; U266 cells, 4 h, EMSA",50 µM
same,time to lowest level (complete decline) of Bcl-2,Bcl-2,≤ 8 h
same,suppression of growth/proliferation,[2],completely suppressed the growth; also recorded: almost complete inhibition of proliferation
same,activation of caspase-7 (disappearance of 35-kDa band),caspase-7,time-dependent activation
same,constitutive NF-κB activation (nuclear localization),NF-κB [3],downregulated NF-κB
same,constitutive STAT3 activation (nuclear localization),STAT3,downregulated this transcripion factor
